Calls of active or inactive are those of the source. How the calls were made is not given here.
Test system: host cell cytotoxicity, % cell control, HIV fusion counter-screen
Assay: cytotoxicity of HIV-1 entry inhibitor leads – cell-based, cytotoxicity control for CCR5-tropic HIV-1 fusion inhibitors, dose response (AID 504388)

Row | Compound | CC50
1 | CS(=O)(=O)C1=NSC2=NC(=O)/C(=C\c3cccn3-c3cccc(F)c3)C(=N)N21 | 48.5 µM
2 | O=C(O)c1ccc(C[n+]2c(-c3ccccc3)csc2Nc2ccccc2)cc1 | 75.2 µM
3 | Cc1ccc(-n2cccc2/C=C2/C(=N)N3C(=NC2=O)SN=C3S(C)(=O)=O)cc1C | 32.7 µM
4 | COc1ccccc1Cn1c(O)cc2nn(-c3nc4ccccc4s3)c(=O)c-2c1C | 36.6 µM
5 | O=C(O)CCCN1C(=O)/C(=C\c2ccc(-c3ccc(Br)cc3)o2)SC1=S | 7.36 µM
6 | O=C(O)c1ccc([C@@H]2Nc3ccc(S(=O)(=O)Nc4cccc5ccccc45)cc3[C@@H]3C=CC[C@@H]32)cc1 | 68.9 µM
7 | COc1cccc(-n2cccc2/C=C2/C(=N)N3C(=NC2=O)SN=C3S(C)(=O)=O)c1 | > 100 µM (inactive)
8 | CCOC(=O)C1=C(C)N=c2sc(=Cc3ccc(OCC(=O)O)cc3)c(=O)n2C1c1ccc(OC)cc1OC (centres undefined) | 55.8 µM
9 | CS(=O)(=O)C1=NSC2=NC(=O)/C(=C\c3cccn3-c3cccc(C(F)(F)F)c3)C(=N)N21 | 53.9 µM
10 | CCc1ccc(-c2ccc(/C=C3\SC(=S)N(CCCC(=O)O)C3=O)o2)cc1 | > 100 µM (inactive)
11 | COc1ccc(-c2ccc(/C=C3\SC(=S)N(CCCC(=O)O)C3=O)o2)cc1 | 78.6 µM
12 | COc1ccc(-n2cccc2/C=C2/C(=N)N3C(=NC2=O)SN=C3S(C)(=O)=O)cc1Cl | 96 µM
13 | Cc1c2c(=O)n(-c3nc4ccccc4s3)nc-2cc(O)n1Cc1ccc(F)cc1 | 38.5 µM
14 | Cc1c2c(=O)n(-c3nc4ccccc4s3)nc-2cc(O)n1CCc1ccc(O)cc1 | 27.2 µM
15 | O=C(O)CCC(C(=O)O)N1C(=O)/C(=C\c2ccco2)SC1=S (centres undefined) | > 100 µM (inactive)
16 | CS(=O)(=O)C1=NSC2=NC(=O)/C(=C\c3cccn3-c3ccc(Cl)c(Cl)c3)C(=N)N21 | 39.4 µM
17 | CCOC(=O)C1=C(C)N=c2s/c(=C\c3ccc(OCC(=O)O)cc3)c(=O)n2C1c1ccc(OC)c(OCC)c1 (centres undefined) | 71.9 µM
18 | CS(=O)(=O)C1=NSC2=NC(=O)/C(=C\c3cccn3-c3ccc(Br)cc3)C(=N)N21 | 36.9 µM
19 | CCOC(=O)C1=C(C)N=c2sc(=Cc3ccc(OCC(=O)O)cc3)c(=O)n2C1c1ccccc1 (centres undefined) | 62.2 µM
20 | O=C(O)CCCN1C(=O)/C(=C\c2ccc(-c3ccc(Cl)cc3)o2)SC1=S | 37.5 µM
21 | COc1ccc(Cn2c(O)cc3nn(-c4nc5ccccc5s4)c(=O)c-3c2C)cc1 | 39.4 µM
22 | COc1ccccc1NS(=O)(=O)c1ccc2c(c1)C1C=CCC1C(c1ccc(C(=O)O)cc1)N2 (centres undefined) | 70.9 µM
23 | O=C(O)c1ccc(C[n+]2c(-c3ccc([N+](=O)[O-])cc3)csc2Nc2ccccc2)cc1 | > 100 µM (inactive)
24 | Cc1c2c(=O)n(-c3nc4ccccc4s3)nc-2cc(O)n1Cc1cccnc1 | 7.3 µM
25 | O=C(O)CCCN1C(=O)/C(=C\c2ccc(-c3cccc(Cl)c3)o2)SC1=S | 51.1 µM

Row | Compound | CC50
26 | Nc1sc2ccccc2[n+]1Cc1ccc(C(=O)O)cc1 | > 100 µM (inactive)
27 | O=C(O)CCCN1C(=O)/C(=C\c2ccc(-c3ccc(F)cc3)o2)SC1=S | 88.2 µM
28 | Cc1c2c(=O)n(-c3nc4ccccc4s3)nc-2cc(O)n1Cc1ccncc1 | 5.17 µM
29 | CCOC(=O)C1=C(C)N=c2sc(=Cc3ccc(OCC(=O)O)cc3)c(=O)n2C1c1ccc(F)cc1 (centres undefined) | 63 µM
30 | O=C(O)c1ccc(C2Nc3ccc(S(=O)(=O)Nc4cc(Cl)ccc4Cl)cc3C3C=CCC32)cc1 (centres undefined) | 85.6 µM
31 | CCOC(=O)C1=C(c2ccccc2)N=c2s/c(=C\c3ccc(OCC(=O)O)cc3)c(=O)n2C1c1cccc(OC)c1 (centres undefined) | 51.5 µM
32 | Cc1c2c(=O)n(-c3nc4ccccc4s3)nc-2cc(O)n1CCc1cccs1 | > 100 µM (inactive)
33 | Cc1ccc(-n2cccc2/C=C2/C(=N)N3C(=NC2=O)SN=C3S(C)(=O)=O)cc1 | 39.5 µM
34 | CS(=O)(=O)C1=NSC2=NC(=O)/C(=C\c3cccn3-c3cc(Cl)cc(Cl)c3)C(=N)N21 | 51.9 µM
35 | COc1cccc(C2C(C(=O)Nc3ccccc3)=C(C)N=c3sc(=Cc4ccc(OCC(=O)O)cc4)c(=O)n32)c1 (centres undefined) | > 100 µM (inactive)
36 | CS(=O)(=O)C1=NSC2=NC(=O)/C(=C\c3cccn3-c3ccc(F)cc3)C(=N)N21 | 36.3 µM
37 | CC1=C(C(=O)OC(C)C)C(c2ccc(Cl)cc2)n2c(s/c(=C\c3ccc(OCC(=O)O)cc3)c2=O)=N1 (centres undefined) | > 100 µM (inactive)
38 | COc1ccc(CCn2c(O)cc3nn(-c4nc5ccccc5s4)c(=O)c-3c2C)cc1 | 36.4 µM
39 | CS(=O)(=O)C1=NSC2=NC(=O)/C(=C\c3cccn3-c3cccc(Cl)c3)C(=N)N21 | 36.5 µM
40 | CCOc1ccc(-n2cccc2/C=C2/C(=N)N3C(=NC2=O)SN=C3S(C)(=O)=O)cc1 | 40.2 µM
41 | O=C(O)CCCN1C(=O)/C(=C/c2ccc(-c3ccc(Cl)c(Cl)c3)o2)SC1=S | 18.3 µM
42 | CCOC(=O)C1=C(C)N=c2s/c(=C\c3ccc(OCC(=O)O)cc3)c(=O)n2C1c1ccc(Cl)cc1 (centres undefined) | 38.3 µM
43 | Cc1c2c(=O)n(-c3nc4ccccc4s3)nc-2cc(O)n1CCC(C)C | 36.5 µM
44 | Cc1c2c(=O)n(-c3nc4ccccc4s3)nc-2cc(O)n1Cc1ccccc1Cl | 23.5 µM
45 | Cc1c2c(=O)n(-c3nc4ccccc4s3)nc-2cc(O)n1Cc1cccs1 | 42.5 µM
46 | O=C(O)CCCN1C(=O)/C(=C/c2ccc(-c3cccc(C(F)(F)F)c3)o2)SC1=S | 92.8 µM
47 | CCc1ccc(-n2cccc2/C=C2/C(=N)N3C(=NC2=O)SN=C3S(C)(=O)=O)cc1 | 30.7 µM
48 | CS(=O)(=O)C1=NSC2=NC(=O)/C(=C\c3cccn3-c3ccc(Cl)cc3)C(=N)N21 | 39.7 µM
49 | Cc1c2c(=O)n(-c3nc4ccccc4s3)nc-2cc(O)n1C1CC1 | 6 µM
